One series has as its system PC/RS cortical neurons. Kind of series: protection by anti-psychotic drugs against MK-801 (NRH)-induced vacuoles in rats. The format is in vivo. The settings on record: ip; for protection against vacuoles (activity in words): MK-801-treated rats. The protocol: Control animals received saline or DMSO, but no anti-psychotic drugs. Test animals were injected ip with an antipsychotic drug, listed above and in Table 2. Vacuoles were counted and data were processed as described in Example 1.

Series [1] is described as follows: penetration of sulpiride into the CNS. The series is classed as in vivo. Particulars: in words.
Another series has as its system cerebral cortex. Particulars: adult rat, literature; cited from earlier work.
The next series relates to NMDA receptor. Particulars: humans, literature; cited from earlier work.
Series [2] deals with KA and/or QUIS/AMPA classes of EAA receptors. Kind of series: blocking of MK-801 neurotoxic side effects by non-NMDA antagonist drugs in vivo. Particulars: adult rats. From the text:
In addition to the foregoing classes of drugs, the Applicants have also recently discovered that non-NMDA antagonist drugs which can penetrate the BBB and block the KA and/or QUIS/AMPA classes of EAA receptors.

The conditions of series [3]: Sershen 1994; cited from earlier work.
Another series has as its system α2 receptors. Particulars: in words; cited from earlier work.
The test system of series [4] is people addicted to cigarettes or opiates. Particulars: cited from earlier work.
The conditions of series [5]: compared to clonidine, cited from earlier work.

Entries after “also recorded” stand apart in the source; their conditions may differ. Like-named read-outs stand apart in the source and are kept apart here. A value given as a limit tells only on which side of the number the result lay.

In the case of `CCN1CCCC1CNC(=O)c1cc(S(N)(=O)=O)ccc1OC` (stereo not drawn) [Sulpiride], in the series on PC/RS cortical neurons (Rattus norvegicus, Cortical neurone), the median effective dose (ED50) was > 200 mg/kg. In addition, the “protection against vacuoles (activity in words)” value was “Inactive” in the series with PC/RS cortical neurons and “inactive” in the series with PC/RS cortical neurons (listed as sulpiride). The “time to penetrate into the CNS” value in [1] is “several hours”.
As to `c1ccc(C2(N3CCCCC3)CCCCC2)cc1` [Phencyclidine], the “pathomorphological changes in brain” value in the series with cerebral cortex is given as “produce pathomorphological changes in various corticolimbic regions of the adult rat brain”. For the same molecule, the psychotomimetic reactions entry in the series on NMDA receptor is “can induce a psychosis which is clinically indistinguishable from schizophrenia”.
For `NS(=O)(=O)c1cccc2c1c([N+](=O)[O-])cc1nc(O)c(O)nc12` [NBQX, 2,3-dihydroxy-6-nitro-7-sulfamoylbenzo(F)quinoxaline], in series [2], the “block of neurotoxic side effects of NMDA antagonist drugs such as MK-801” value is on record as “can also block the neurotoxic side effects of NMDA antagonist drugs such as MK-801”.
For `CC[C@H]1C[C@H]2C[C@H]3c4[nH]c5ccc(OC)cc5c4CCN(C2)[C@@H]13` [ibogaine], the craving for cocaine entry in series [3] was “can suppress the craving for cocaine”.
On to `CC(Oc1c(Cl)cccc1Cl)C1=NCCN1` (stereo not drawn) [lofexidine], for which the “affinity/selectivity for α2 over α1 receptors” value with α2 receptors is “activate α2 receptors with higher affinity than they have for α1 receptors”. Also, the “reduction of withdrawal symptoms” value in series [4] was “help reduce withdrawal symptoms in some recovering addicts”. The hypotensive side effects result in [5] is reported as “substantially lower hypotensive side effects than clonidine; also recorded: substantially lower activity in reducing blood pressure than clonidine”; in [5] (listed as Lofexidine), “reduced hypotensive side effects compared to clonidine”.
